{"source": "patent US11726079B2", "about": "“Lighting systems and methods of using lighting systems for in vitro potency assay for Photofrin” (Concordia Laboratories, Inc., priority 2012, dated 2023)", "system": "A549 human lung carcinoma cells", "assay": "In vitro potency assay for Photofrin®: A549 cells, 4 h drug absorption, wash, 10 min irradiation at 400-650 nm, 24 h, XTT viability, 4PL EC50", "type": "cell-based", "parameters": "key to EC50-XTT / EC50 STD / EC50 Test: EC50 as Photofrin concentration in μg/mL (4PL inflection point)", "settings": "for EC50 Test / Black plate EC50 / EC50 STD: in µg/mL; for Black plate EC50: black plate with black lid; for Clear Plate EC50: clear 96-well plate; for Potency of Test Sample / Potency of Test Sample, Mean / Experimental Potency: ratio EC50(standard)/EC50(test); for Potency of Test Sample / Potency of Test Sample, Mean: expected 0.5; for EC50 STD: standard sample (70 μg/mL high test drug concentration)", "procedure": "Cell passaging of A549 cells is performed using fixed seeding densities to reduce assay variation resulting from cell culture conditions. […] Working in very low light conditions, Photofrin® is reconstituted in normal saline to 2.5 mg/mL and diluted further in culture medium at twice the desired final assay concentration, typically 140 μg/mL. A series of two-fold dilutions were then prepared from the 140 μg/mL solution and the diluted drug was added to the cells at 1:1 (v/v) according to the diagram shown in FIG. 11.\n[…] The plate is then removed from the incubator, the drug is aspirated, the wells are washed with Dulbecco's phosphate buffered saline (DPBS) and fresh, pre-warmed medium is added to the wells. […] […] The wells covered with foil strips are important controls for the activity of Photofrin® in the absence of irradiation and the effect of light on the cells in the absence of drug.\nThe optical absorbance of the wells in column 1 (high drug concentration, no cells) is evaluated for absorption at 450 nm to ensure that the drug is not interfering with the XTT assay. The percent viability of each of the wells in columns 2-9 and 11 is calculated relative to the mean value of column 10 (cell control, no drug, no light). For each dose response obtained, a four parameter logistic (4PL) nonlinear regression analysis is performed of the percent viability versus the log-Photofrin® concentration. The point of inflection of the regression curve (C value) is defined as the EC50 and used in the calculation of relative potency. Curve fitting and calculation of the EC50 is performed with Softmax v5.4.2 (Molecular Devices, Inc.) or Prism v.5.04 (GraphPad, Software Inc.) software. The mean percent viability of columns 9 and 11 is also calculated.\n• 1. Materials and Reagents • 1.1. A549 Human Lung Carcinoma (ATCC—Cat. No.: CCL-185) • 1.2. 25 cm^2 Flasks (Corning—Cat. No.: 431463, or equivalent) • 1.3. 75 cm^2 Flasks (Corning—Cat. No.: 431464, or equivalent) • 1.4. 50 mL tubes (Fisher Scientific—Cat. No. 17-512F, or equivalent) • 1.5. Hemacytometer • 1.6. RPMI-1640 (+) phenol red (Lonza—Cat. No.: 12-167F, or equivalent) • 1.7. HI-FBS (Gibco—Life Technologies—Cat No.: 10082-147, or equivalent) • 1.8. 200 mM L-Glutamine (Lonza—Cat. No.: 17-605E, or equivalent) • 1.9. 0.25% Trypsin-EDTA (Gibco—Cat. No.: 25200-056, or equivalent) • 2. Instruments • 2.1. Forma Scientific centrifuge with swinging bucket rotor (Model 5682, or equivalent) • 2.2. Water bath set at 37° C. • 2.3. […] Prepared Reagents • 3.1. RPMI-1640 Complete Media • 3.1.1. 500 mL bottle of RPMI-1640 basal media containing phenol red • 3.1.2. Add 50 mL HI-FBS • 3.1.3. Add 5.5 mL of 200 mM L-Glutamine • 4. Procedure • 4.1. Remove one vial of A549 lung carcinoma cells from liquid nitrogen storage and after ensuring that the vial is tightly closed, rapidly thaw vial by holding all but the top of the vial submerged in a 37° C. water bath until the vial contents begins to thaw but while ice still remains. • 4.2. Liberally spray the vial with 70% ethanol, wipe with tissue, and place into a laminar flow hood. • 4.3. Transfer the contents of the vial to a 50 mL conical tube containing 9 mL RPMI-1640 complete medium containing phenol red (Step 3.1) (hereafter referred to as complete medium in this method). • 4.4. Centrifuge the tube in a swing bucket rotor set at 1200 RPM (220 RCF) for five minutes at room temperature. • 4.5. Discard supernatant and gently flick the tube to resuspend the cells in the residual volume left in the tube. • 4.6. Add 5 mL complete medium, transfer the cell solution to a 25 cm^2 flask, and then place the flask into a 37° C. incubator with 5% CO2. • 4.7. Monitor the flask daily and when the cells reach approximately 80% confluence, remove the media, and wash the cells by adding 2 mL DPBS to the flask. Ensure that all cells are rinsed and discard the DPBS. • 4.8. Add 1 mL 0.25% trypsin-EDTA to prewash the cells, tip flask to coat all cells, and discard the trypsin. • 4.9. […]", "key": {"[1]": {"settings": "seeding density 0.8 × 10^4 cells/well"}, "[2]": {"settings": "seeding density 1.2 × 10^4 cells/well"}, "[3]": {"settings": "seeding density 1.9 × 10^4 cells/well"}}, "note": "“And” between values parts separate entries of the source, which are not always exact repeats. Equal values may be shown once. Marks after values point to notes of the source that are not given here.", "data": [{"substance": "porfimer sodium [Photofrin®]", "values": [{"measurement": "EC50 Test", "setting": "Test sample of theoretical potency 0.5", "result": "21.3 and 21.7"}, {"measurement": "EC50 Test", "setting": "Test sample of theoretical potency 2", "result": 5.16}, {"measurement": "EC50 Test", "setting": "Test sample of theoretical potency 4 (dissolved in one-fourth the nominal volume), confidence interval wide due to poor curve fitting", "result": "2.36*"}, {"measurement": "Test Sample EC50", "setting": "Test sample, 35 μg/mL high test concentration regressed as if 70 μg/mL, Plate 1 (placement Standard, Test; left to right dilution; controls in columns 9-11)", "result": 21.2, "unit": "µg/mL"}, {"measurement": "Test Sample EC50", "setting": "Test sample, 35 μg/mL high test concentration regressed as if 70 μg/mL, Plate 2 (placement Test, Standard; left to right dilution; controls in columns 9-11)", "result": 22.2, "unit": "µg/mL"}, {"measurement": "Test Sample EC50", "setting": "Test sample, 35 μg/mL high test concentration regressed as if 70 μg/mL, Plate 3 (right to left dilution; controls in columns 9-11)", "result": 21.5, "unit": "µg/mL"}, {"measurement": "Test Sample EC50", "setting": "Test sample, 35 μg/mL high test concentration regressed as if 70 μg/mL, Plate 4 (placement Standard, Test; left to right dilution; controls in columns 9-11)", "result": 21.5, "unit": "µg/mL"}, {"measurement": "Test Sample EC50", "setting": "Test sample, 35 μg/mL high test concentration regressed as if 70 μg/mL, Plate 5 (left to right dilution; controls in columns 2-4)", "result": 20.1, "unit": "µg/mL"}, {"measurement": "Test Sample EC50, Mean", "setting": "Test sample, 35 μg/mL high test concentration regressed as if 70 μg/mL, mean across Plates 1-5 of positional analysis", "result": 21.3, "unit": "µg/mL"}, {"measurement": "Black plate EC50", "setting": "experiment PIN-004, nine point dose response 250-0.977 μg/m", "result": 8.08}, {"measurement": "Black plate EC50", "setting": "experiment PIN-008, six point dose response 30.0-1.09 μg/mL", "result": "10.1 and 9.48 and 9.59"}, {"measurement": "Black plate EC50, Mean", "setting": "black plate, mean of PIN-004 and PIN-008 values", "result": 9.31, "unit": "µg/mL"}, {"measurement": "Clear Plate EC50", "setting": "experiment PIN-004, nine point dose response 250-0.977 μg/m, in µg/mL (unit assumed)", "result": 1.87}, {"measurement": "Clear Plate EC50", "setting": "experiment PIN-008, six point dose response 30.0-1.09 μg/mL, in µg/mL (unit assumed)", "result": "2.49 and 2.46 and 2.33"}, {"measurement": "Clear Plate EC50, Mean", "setting": "clear plate, mean of PIN-004 and PIN-008 values", "result": 2.29, "unit": "µg/mL"}, {"measurement": "EC50-XTT", "setting": "experiment PIN-009, XTT endpoint, in µg/mL (unit assumed)", "result": "9.48 and 9.42"}, {"measurement": "EC50-XTT, Mean", "setting": "experiment PIN-009, XTT endpoint, mean", "result": 9.45, "unit": "µg/mL"}, {"measurement": "Potency of Test Sample", "setting": "A549 cells at passage P10", "result": 0.556}, {"measurement": "Potency of Test Sample", "setting": "A549 cells at passage P17", "result": 0.526}, {"measurement": "Potency of Test Sample", "setting": "Inter-operator Assay, AB-1", "result": 0.465}, {"measurement": "Potency of Test Sample", "setting": "Inter-operator Assay, AB-2", "result": 0.564}, {"measurement": "Potency of Test Sample, Mean", "setting": "Inter-operator Assay, mean of operator AB plates", "result": 0.515}, {"measurement": "Potency of Test Sample, Mean", "setting": "Inter-operator Assay, mean of operator KP plates", "result": 0.487}, {"measurement": "Potency of Test Sample", "setting": "Inter-operator Assay, operator KP, both plates KP-1", "result": "0.470 and 0.503"}, {"measurement": "Potency of Test Sample", "setting": "absorption time 3.5 hours", "result": 0.533}, {"measurement": "Potency of Test Sample", "setting": "absorption time 4.0 hours", "result": 0.507}, {"measurement": "Potency of Test Sample", "setting": "absorption time 4.5 hours", "result": 0.573}, {"measurement": "Potency of Test Sample", "setting": "irradiation time 8 minutes", "result": 0.490}, {"measurement": "Potency of Test Sample", "setting": "irradiation time 9 minutes", "result": 0.476}, {"measurement": "Potency of Test Sample", "setting": "irradiation time 10 minutes", "result": 0.487}, {"measurement": "Potency of Test Sample", "setting": "irradiation time 11 minutes", "result": 0.555}, {"measurement": "Potency of Test Sample", "setting": "irradiation time 12 minutes", "result": 0.514}, {"measurement": "Potency of Test Sample", "setting": "operator AB Pilot Assay-1", "result": 0.411}, {"measurement": "Potency of Test Sample", "setting": "operator AB Pilot Assay-2", "result": 0.537}, {"measurement": "Potency of Test Sample", "setting": "post-irradiation incubation time 22 hours", "result": 0.549}, {"measurement": "Potency of Test Sample", "setting": "post-irradiation incubation time 24 hours", "result": 0.54}, {"measurement": "Potency of Test Sample", "setting": "post-irradiation incubation time 26 hours", "result": 0.575}, {"measurement": "Potency of Test Sample", "setting": "post-irradiation temperature 35° C.", "result": 0.448}, {"measurement": "Potency of Test Sample", "setting": "post-irradiation temperature 37° C. (nominal, two experiments)", "result": "0.543 and 0.495"}, {"measurement": "Potency of Test Sample", "setting": "post-irradiation temperature 39° C.", "result": 0.516}, {"measurement": "Potency of Test Sample", "setting": "[1]", "result": 0.521}, {"measurement": "Potency of Test Sample", "setting": "[2]", "result": 0.391}, {"measurement": "Potency of Test Sample", "setting": "[3]", "result": 0.526}, {"measurement": "Experimental Potency", "setting": "theoretical potency 0.5", "result": "0.526 and 0.516"}, {"measurement": "Experimental Potency", "setting": "theoretical potency 2", "result": 2.05}, {"measurement": "Experimental Potency", "setting": "theoretical potency 4, wide confidence interval on EC50", "result": "4.36*"}, {"measurement": "Mean Potency", "setting": "ratio of the EC50(standard)/EC50(test), positional analysis, Plates 1-5, Test sample is Standard diluted two-fold", "result": 0.516}, {"measurement": "EC50 STD", "setting": "assayed with Test sample of theoretical potency 0.25", "result": 11.6}, {"measurement": "EC50 STD", "setting": "assayed with Test sample of theoretical potency 2", "result": 10.6}, {"measurement": "EC50 STD", "setting": "assayed with Test sample of theoretical potency 4", "result": 10.3}, {"measurement": "EC50 STD", "setting": "[1]", "result": 11.0}, {"measurement": "EC50 STD", "setting": "[2]", "result": 10.9}, {"measurement": "EC50 STD", "setting": "[3]", "result": 11.2}, {"measurement": "killing of the cells", "setting": "treatment of cells followed by irradiation at 400-650 nm", "result": "dose-dependent killing of the cells"}]}]}
